pIC50: −log10 of the molar value.
What was measured:
Plasma Renin Activity = experiment: Plasma renin activity in salt depleted monkeys following oral dosing; type: in vivo, cynomolgous monkeys; settings: oral 3 mg/kg
Description: (§1) The ability of the compounds of the invention to decrease blood pressure and plasma renin activity in vivo can be determined using the following method.
(§2) Male cynomolgous monkeys housed under constant temperature and lighting conditions and weighing 3-5 kg were instrumented with chronic indwelling arterial and venous catheters. Following pretreatment by salt-depletion, the monkeys were dosed by nasogastric tube with 3 mg/kg of the compound of Example 152.

[1] = Blood pressure in salt depleted monkeys following oral dosing; type: in vivo, cynomolgous monkeys; settings: oral 3 mg/kg
Description: as §1, §2

human renal renin = molecular target: T1, human renal renin (Homo sapiens, UniProt P00797); experiment: Inhibition of human renal renin in vitro (angiotensin I formed, radioimmunoassay); type: biochemical; settings: human angiotensinogen substrate, 37 degrees C., pH 6.0
T1 construct: human renal renin, free from acid proteolytic activity; from tissue
T1 sequence (P00797 67-406): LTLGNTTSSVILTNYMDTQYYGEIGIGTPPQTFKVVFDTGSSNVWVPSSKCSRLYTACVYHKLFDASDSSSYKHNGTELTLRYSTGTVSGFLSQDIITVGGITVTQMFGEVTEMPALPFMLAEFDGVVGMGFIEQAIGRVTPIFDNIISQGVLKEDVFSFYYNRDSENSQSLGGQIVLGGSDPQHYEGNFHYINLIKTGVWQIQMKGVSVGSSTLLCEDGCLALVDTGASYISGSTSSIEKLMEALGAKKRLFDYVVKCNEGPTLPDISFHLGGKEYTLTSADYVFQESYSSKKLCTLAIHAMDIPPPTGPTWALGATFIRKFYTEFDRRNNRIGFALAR
Description: The novel compounds of the present invention are also useful for treating congestive heart failure. […] At the end of the incubation, the amount of angiotensin I formed is measured by radioimmunoassay and the molar concentration required to cause 50% inhibition, expressed as the IC50, is calculated.

[2] = Mean of three monkeys, time 0 min
[3] = Mean of three monkeys, time 5 min
[4] = Mean of three monkeys, time 15 min
[5] = Mean of three monkeys, time 30 min
[6] = Mean of three monkeys, time 60 min
[7] = Mean of three monkeys, time 90 min
[8] = Mean of three monkeys, time 120 min
[9] = Mean of three monkeys, time 180 min
[10] = Mean of three monkeys, time 360 min

CC1COC(C(O)C(CC2CCCCC2)NC(=O)C(Cc2cscn2)N2CCCC(Cc3ccccc3)(NS(=O)(=O)N3CCN(C)CC3)C2=O)C1 [Example 152, (2S1-((3S)-((N-methylpiperazinsulfonyl)amino-3-phenylmethyl-2-oxo-1-piperidinyl)-3-(4-thiazolyl)propionic acid amide of (2S,4S,1'R,2'S)-2-(2'-amino-3'-cyclohexyl-1'-hydroxypropyl)-4-methyltetrahydrofuran]
Plasma Renin Activity (PRA) (Plasma Renin Activity; [2]): 21.7 ng/mL/h
Plasma Renin Activity (PRA) (Plasma Renin Activity; [3]): 0.8 ng/mL/h
Plasma Renin Activity (PRA) (Plasma Renin Activity; [4]): 0.2 ng/mL/h
Plasma Renin Activity (PRA) (Plasma Renin Activity; [5]): 0.0 ng/mL/h
Plasma Renin Activity (PRA) (Plasma Renin Activity; [6]): 0.0 ng/mL/h
Plasma Renin Activity (PRA) (Plasma Renin Activity; [7]): 0.0 ng/mL/h
Plasma Renin Activity (PRA) (Plasma Renin Activity; [8]): 0.1 ng/mL/h
Plasma Renin Activity (PRA) (Plasma Renin Activity; [9]): 0.1 ng/mL/h
Plasma Renin Activity (PRA) (Plasma Renin Activity; [10]): 0.5 ng/mL/h
Plasma Renin Activity (PRA) (Plasma Renin Activity; Monkey 1, time 0 min): 12.6 ng/mL/h
Plasma Renin Activity (PRA) (Plasma Renin Activity; Monkey 1, time 5 min): 2.2 ng/mL/h
Plasma Renin Activity (PRA) (Plasma Renin Activity; Monkey 1, time 15 min): 0.44 ng/mL/h
Plasma Renin Activity (PRA) (Plasma Renin Activity; Monkey 1, time 30 min): 0.0 ng/mL/h
Plasma Renin Activity (PRA) (Plasma Renin Activity; Monkey 1, time 60 min): 0.0 ng/mL/h
Plasma Renin Activity (PRA) (Plasma Renin Activity; Monkey 1, time 90 min): 0.1 ng/mL/h
Plasma Renin Activity (PRA) (Plasma Renin Activity; Monkey 1, time 120 min): 0.0 ng/mL/h
Plasma Renin Activity (PRA) (Plasma Renin Activity; Monkey 1, time 180 min): 0.1 ng/mL/h
Plasma Renin Activity (PRA) (Plasma Renin Activity; Monkey 1, time 360 min): 0.2 ng/mL/h
Plasma Renin Activity (PRA) (Plasma Renin Activity; Monkey 2, time 0 min): 34.2 ng/mL/h
Plasma Renin Activity (PRA) (Plasma Renin Activity; Monkey 2, time 5 min): 0.1 ng/mL/h
Plasma Renin Activity (PRA) (Plasma Renin Activity; Monkey 2, time 15 min): 0.0 ng/mL/h
Plasma Renin Activity (PRA) (Plasma Renin Activity; Monkey 2, time 30 min): 0.0 ng/mL/h
Plasma Renin Activity (PRA) (Plasma Renin Activity; Monkey 2, time 60 min): 0.0 ng/mL/h
Plasma Renin Activity (PRA) (Plasma Renin Activity; Monkey 2, time 90 min): 0.0 ng/mL/h
Plasma Renin Activity (PRA) (Plasma Renin Activity; Monkey 2, time 120 min): 0.3 ng/mL/h
Plasma Renin Activity (PRA) (Plasma Renin Activity; Monkey 2, time 180 min): 0.2 ng/mL/h
Plasma Renin Activity (PRA) (Plasma Renin Activity; Monkey 2, time 360 min): 0.7 ng/mL/h
Plasma Renin Activity (PRA) (Plasma Renin Activity; Monkey 3, time 0 min): 18.4 ng/mL/h
Plasma Renin Activity (PRA) (Plasma Renin Activity; Monkey 3, time 5 min): 0.1 ng/mL/h
Plasma Renin Activity (PRA) (Plasma Renin Activity; Monkey 3, time 15 min): 0.2 ng/mL/h
Plasma Renin Activity (PRA) (Plasma Renin Activity; Monkey 3, time 30 min): 0.0 ng/mL/h
Plasma Renin Activity (PRA) (Plasma Renin Activity; Monkey 3, time 60 min): 0.1 ng/mL/h
Plasma Renin Activity (PRA) (Plasma Renin Activity; Monkey 3, time 90 min): 0.0 ng/mL/h
Plasma Renin Activity (PRA) (Plasma Renin Activity; Monkey 3, time 120 min): 0.0 ng/mL/h
Plasma Renin Activity (PRA) (Plasma Renin Activity; Monkey 3, time 180 min): 0.1 ng/mL/h
Plasma Renin Activity (PRA) (Plasma Renin Activity; Monkey 3, time 360 min): 0.7 ng/mL/h
Blood Pressure (BP) [1, 2]: 86 mmHg
Blood Pressure (BP) [1, 3]: 85 mmHg
Blood Pressure (BP) [1, 4]: 79 mmHg
Blood Pressure (BP) [1, 5]: 74 mmHg
Blood Pressure (BP) [1, 6]: 73 mmHg
Blood Pressure (BP) [1, 7]: 76 mmHg
Blood Pressure (BP) [1, 8]: 77 mmHg
Blood Pressure (BP) [1, 9]: 79 mmHg
Blood Pressure (BP) [1, 10]: 83 mmHg
Blood Pressure (BP) ([1]; Monkey 1, time 0 min): 75 mmHg
Blood Pressure (BP) ([1]; Monkey 1, time 5 min): 75 mmHg
Blood Pressure (BP) ([1]; Monkey 1, time 15 min): 75 mmHg
Blood Pressure (BP) ([1]; Monkey 1, time 30 min): 71 mmHg
Blood Pressure (BP) ([1]; Monkey 1, time 60 min): 70 mmHg
Blood Pressure (BP) ([1]; Monkey 1, time 90 min): 74 mmHg
Blood Pressure (BP) ([1]; Monkey 1, time 120 min): 68 mmHg
Blood Pressure (BP) ([1]; Monkey 1, time 180 min): 72 mmHg
Blood Pressure (BP) ([1]; Monkey 1, time 360 min): 72 mmHg
Blood Pressure (BP) ([1]; Monkey 2, time 0 min): 105 mmHg
Blood Pressure (BP) ([1]; Monkey 2, time 5 min): 99 mmHg
Blood Pressure (BP) ([1]; Monkey 2, time 15 min): 92 mmHg
Blood Pressure (BP) ([1]; Monkey 2, time 30 min): 82 mmHg
Blood Pressure (BP) ([1]; Monkey 2, time 60 min): 85 mmHg
Blood Pressure (BP) ([1]; Monkey 2, time 90 min): 85 mmHg
Blood Pressure (BP) ([1]; Monkey 2, time 120 min): 80 mmHg
Blood Pressure (BP) ([1]; Monkey 2, time 180 min): 92 mmHg
Blood Pressure (BP) ([1]; Monkey 2, time 360 min): 93 mmHg
Blood Pressure (BP) ([1]; Monkey 3, time 0 min): 77 mmHg
Blood Pressure (BP) ([1]; Monkey 3, time 5 min): 82 mmHg
Blood Pressure (BP) ([1]; Monkey 3, time 15 min): 69 mmHg
Blood Pressure (BP) ([1]; Monkey 3, time 30 min): 69 mmHg
Blood Pressure (BP) ([1]; Monkey 3, time 60 min): 65 mmHg
Blood Pressure (BP) ([1]; Monkey 3, time 90 min): 70 mmHg
Blood Pressure (BP) ([1]; Monkey 3, time 120 min): 82 mmHg
Blood Pressure (BP) ([1]; Monkey 3, time 180 min): 72 mmHg
Blood Pressure (BP) ([1]; Monkey 3, time 360 min): 84 mmHg
pIC50 (human renal renin): 9.26
